# Reference: paper PMC13144739, “Global analysis of cancer cell responses to USP9X inhibition” (The EMBO Journal, 2026)
# What was measured:
# MiaPaca2 cells = test: Lattice light sheet imaging of mitosis, MiaPaca2; format: cell-based, human; settings: 15 µM
# Procedure: MDA-MB-231, MiaPaca2, HMEC-1, SK-MEL-2 and UO-31 cells were seeded at 2–15 × 10^4 cells/mL in 8-well glass µ-slides (ibidi). […] SPY650-Tubulin, SPY555-DNA (both Spirochrome, Inc.), and Annexin V FITC (Sigma-Aldrich) were added at a final concentration of 1 in 1000. Cells were left to grow for 24 h before time-lapse live-cell data were acquired using a Lattice Light Sheet 7 (Zeiss). […] Aberration correction was set to a value of 170 to minimise aberrations as determined by imaging the Point Spread Function using 100 nm fluorescent microspheres. Data were collected with a frame time of 10 ms and a z step of 0.4 μm with 834 frames per 290 μm by 290 μm. Individual regions were imaged in parallel across six wells of the eight-well chamber slide. Data are presented as Maximum Intensity Projections (MIPs), and these MIPs were used for all downstream analysis. Tile regions were imaged for 24 h with 10 min intervals at 37 °C, 5% CO2. Analysis was performed using the MIPs of the different full fields of cells over the 24–48 h time period. Mitosis and mitosis arrest were classified through a combination of automated image analysis and manual validation. […] Small erroneous detected spots were further removed through a manually adjusted size filter. […] The mean intensity of all tracks was then measured to determine mitosis and mitosis arrest. […]
# CEP55 = CEP55 degradation by Western Blot in MDA-MB-231 cells; format: cell-based, human
# Procedure: The next day, cells were lysed in DISC lysis buffer (20 mM TRIS/HCl [pH 7.5], 150 mM NaCl, 2 mM EDTA [pH 8.0], 1% [v/v] Triton X 100, 10% [v/v] glycerol) supplemented with 2% (w/v) SDS and PhosSTOP tablets (Roche). To shred DNA, DISC lysates were run through polypropylene columns (Pierce). […] Next, membranes were washed twice in TBS-T and incubated with primary antibodies at 4 °C o/n. Primary antibodies were diluted in antibody dilution buffer (5% [w/v] BSA [pH 5.2, Sigma-Aldrich] in TBS-T with 0.04% [v/v] sodium azide) as per the manufacturer’s instructions. […] Next, membranes were washed four times for 5 min each in TBS-T. Membranes were developed in ECL (Bio-Rad) and imaged using the ChemiDoc imaging system (Bio-Rad). Images were processed using Image Lab software.
# Appendix Fig S4. WEHI-092 phenotypes across cell lines.
# (A) IC50 of USP9X inhibitors in MDA-MB-231 cells measured via degradation of the USP9X substrate CEP55 by Western Blot. The compounds were incubated with cells for […]
# biological repeats. Error bars, s.e.m. (B) Western Blot analysis of USP9X expression levels across a subset of cell lines used in this study. Representative blot from two independent biological repeats is shown with Actin as a sample loading control. l.p. - low passage; h.p. - high passage. […]
# Right, quantification of images plotted as dose-dependent colony area. […]
# USP9X catalytic domain = molecular target: T1, USP9X catalytic domain (Homo sapiens, UniProt Q93008); test: K48-linked di-ubiquitin cleavage assay; format: biochemical; settings: 50 µM compound
# T1 construct: His/SUMO (pOPIN-S vector) (N, cleaved yes); made in house; host or cells: E. coli BL21
# T1 sequence (Q93008 1551-1970): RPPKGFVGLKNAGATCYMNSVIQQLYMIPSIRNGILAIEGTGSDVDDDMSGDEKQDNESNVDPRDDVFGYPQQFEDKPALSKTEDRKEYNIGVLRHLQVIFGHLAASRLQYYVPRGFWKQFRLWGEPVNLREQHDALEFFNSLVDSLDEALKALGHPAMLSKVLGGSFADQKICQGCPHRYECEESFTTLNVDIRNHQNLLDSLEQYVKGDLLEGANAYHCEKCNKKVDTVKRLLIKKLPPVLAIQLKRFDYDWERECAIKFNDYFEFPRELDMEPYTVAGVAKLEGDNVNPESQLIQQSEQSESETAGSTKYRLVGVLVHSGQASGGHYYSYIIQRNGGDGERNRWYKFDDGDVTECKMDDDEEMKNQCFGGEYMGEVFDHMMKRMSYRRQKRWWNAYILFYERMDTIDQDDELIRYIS
# Procedure: For inhibitor activity assays, USP9X catalytic domain (di-ubiquitin cleavage assay: 750 nM, ubiquitin-probe assays: 2.5 µM) was pre-incubated with USP9X inhibitors for 30 min at ambient temperature and subsequently mixed with di-ubiquitin (final concentration 2 µM) in assay buffer (25 mM Tris [pH 8.0], 150 mM NaCl, 10 mM DTT) at pH 8.0 or was mixed with ubiquitin-propargylamide (Ub-PA)/ubiquitin-vinyl sulfonate (Ub-VS) probes at a final concentration of 10 µM in assay buffer. For both assays, the mixture was incubated over a time course, and the reaction was stopped by mixing samples with 2× LDS sample buffer (Invitrogen) supplemented with 3% (v/v) 2-mercaptoethanol. All protein samples were run on a 4–12% Bis-Tris SDS-PAGE gradient gel (Invitrogen) for 60 min at 140 V. The gel was stained with InstantBlue® (Abcam) and imaged.
compound,measurement,setting,value
Cc1[nH]c2ccc(C(=O)N3CCN(S(=O)(=O)c4ccc5c(c4)OCCO5)CC3)cc2c1C [WEHI-092],"apoptosis on metaphase arrest (Annexin V uptake), MiaPaca2",MiaPaca2 cells,did not trigger apoptosis
same,"cell division phenotype, MiaPaca2",MiaPaca2 cells; imaged 24-48 h,significant defects in cell division
same,IC50,"CEP55; Homo sapiens, MDA-MB-231 cells, 24 h, read-out: apparent IC50 (CEP55 destabilisation, based on Western blotting)",1300 nM
same,CEP55 protein level,"CEP55; dose-dependent, Western blot",destabilised
same,cleavage of K48-linked di-ubiquitin,USP9X catalytic domain,inhibited cleavage of K48-linked di-ubiquitin
